{
  "source": "patent US8586552B2",
  "about": "“4,6-substituted 2,5-dideoxystreptamine aminoglycoside antibiotics” (SelectX Pharmaceuticals, Inc., priority 2012, dated 2013)",
  "assay_type_in_all_cases": "cell-based",
  "key": {"[1]": {"test_system": "Pseudomonas aeruginosa (Pae, PAWT, ATCC #27853)", "test": "MIC against Pseudomonas aeruginosa reference strain PAWT", "conditions": "Pseudomonas aeruginosa wild type PAWT"}, "[2]": {"test_system": "more than fifty resistant contemporary clinical isolates of Pseudomonas aeruginosa", "test": "MIC90 against panel of resistant clinical isolates of Pseudomonas aeruginosa"}, "[3]": {"test_system": "Acinetobacter baumannii (Aba, ABWT, ATCC #BAA-747)", "test": "MIC against Acinetobacter baumannii reference strain ABWT"}, "[4]": {"test_system": "Klebsiella pneumoniae KR2 (clinical isolate with intermediate aminoglycoside resistance)", "test": "MIC against Klebsiella pneumoniae clinical isolate KR2", "conditions": "Klebsiella pneumonia KR2", "description": "Klebsiella pneumoniae (Kpn) and Escherichia coli (Eco) are gram-negative (like Pae), enteric pathogens with increasing clinical relevance. Many clinical isolates of Kpn and Eco harbor extended-spectrum beta-lactamases and are no longer sensitive to most beta-lactam antibiotics. We acquired clinical isolates of Klebsiella pneumoniae and Escherichia coli (Micromyx LLC, Kalamazoo, Mich.) and used this panel to test compounds for anti-enteric activity."}},
  "data": [
    {"smiles": "NCCCNCC1OC(OC2C(NC(=O)C(O)CCN)CC(N)C(OC3OC(CN)C(O)CC3N)C2F)C(O)C(N)C1O", "note": "(stereo not shown) [SXP 2523]", "values": [
      {"measurement": "MIC PAWT", "setting": "[1]", "value": 0.25, "unit": "µg/mL"},
      {"measurement": "MIC90 Pseudomonas aeruginosa", "setting": "[2]", "value": 4, "unit": "µg/mL"},
      {"measurement": "MIC ABWT", "setting": "[3]", "value": 0.5, "unit": "µg/mL"},
      {"measurement": "MIC KR2", "setting": "[4]", "value": "0.5-1"}
    ]}
  ]
}
